Literature values as cited in US20210220357A1, “1,3-THIAZOL-2-YL SUBSTITUTED BENZAMIDES FOR THE TREATMENT OF DISEASES ASSOCIATED WITH NERVE FIBER SENSITIZATION” (Bayer Aktiengesellschaft, priority 2018, published 2021).

Test system: treated subjects
Settings: Clinical Phase II trials, taste sensation via the tongue

- taste disturbances: taste disturbances
SMILES: COc1cc(C(C)C)c(Oc2cnc(N)nc2N)cc1S(N)(=O)=O [AF-219, 5-(2,4-diamino-pyrimidin-5-yloxy)-4-isopropyl-2-methoxy-benzenesulfonamide]
